According to paper PMC11012124, “Synthesis of Novel Triazine-Based Chalcones and 8,9-dihydro-7H-pyrimido[4,5-b][1,4]diazepines as Potential Leads in the Search of Anticancer, Antibacterial and Antifungal Agents” (International Journal of Molecular Sciences, 2024):
In brackets after ≈: the same amount, converted by molar mass. Read-outs that look alike come from different tables or passages of the source.

How the values were obtained:
[1] = system: NCI-H226; test: cells; settings: Homo sapiens, NCI-H226, 48 h; for CC50: read-out: LC50
[2] = system: SK-OV-3; test: cells; settings: Homo sapiens, SK-OV-3, 48 h; for CC50: read-out: LC50
[3] = system: MDA-MB-435; test: cells; settings: Homo sapiens, MDA-MB-435, 48 h; for CC50: read-out: LC50
[4] = system: HOP-62; test: cells; settings: Homo sapiens, HOP-62, 48 h; for CC50: read-out: LC50
[5] = system: SW-620; test: cells; settings: Homo sapiens, SW-620, 48 h; for CC50: read-out: LC50
[6] = system: ACHN; test: cells; settings: Homo sapiens, 48 h; for CC50: read-out: LC50
[7] = Hemolytic activity, spectrophotometric; format: cell-based, human; settings: human, human red blood cells (huRBC), 5% hematocrit, 200 μg/mL, 37 °C
[8] = system: NCI-H322M; test: cells; settings: Homo sapiens, 48 h; for CC50: read-out: LC50
[9] = system: TK-10; test: cells; settings: Homo sapiens, TK-10, 48 h; for CC50: read-out: LC50
[10] = system: OVCAR-5; test: cells; settings: Homo sapiens, OVCAR-5, 48 h; for CC50: read-out: LC50
[11] = system: NCI/ADR-RES; test: cells; settings: Homo sapiens, 48 h; for CC50: read-out: LC50
[12] = system: BT-549; test: cells; settings: Homo sapiens, BT-549, 48 h; for CC50: read-out: LC50
[13] = system: 60 cancer cell lines; test: NCI-60 one-dose screen (10 μM); format: cell-based; settings: Homo sapiens; one dose of 10 μM, mean over 60 cancer cell lines; read-out: Mean Growth Percent (MGP)
Source text: Additionally, the mean of the growth percentages (MGP) of each compound against all the 60 cancer cell lines is also reported, which is used as one of the selection criteria to continue with tests at five concentration doses.

[14] = system: OVCAR-8; test: cells; settings: Homo sapiens, OVCAR-8, 48 h; for CC50: read-out: LC50
[15] = system: N. gonorrhoeae ATCC 49226; test: MIC on GC agar plates; format: cell-based, Neisseria gonorrhoeae
Procedure, shortened: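 N. gonorrhoeae (1 × 10^4 CFU) was spotted onto IsoVitaleX-supplemented (1%) GC agar containing graded compound levels. The lowest inhibitory concentration was recorded as the MIC, with oxidase testing used to verify growth, and each assay was done in duplicate on at least two separate occasions.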

[16] = system: RXF 393; test: cells; settings: Homo sapiens, RXF 393, 48 h
[17] = system: M. tuberculosis ATCC 27294; test: Antitubercular broth microdilution MIC; format: cell-based; settings: Mycobacterium tuberculosis; M. tuberculosis ATCC 27294 (H37Rv); read-out: Minimum inhibitory concentration (MIC)
[18] = system: OVCAR-4; test: cells; settings: Homo sapiens, OVCAR-4, 48 h, read-out: LC50
[19] = system: SF-295; test: cells; settings: Homo sapiens, SF-295, 48 h; for CC50: read-out: LC50
[20] = system: DU-145; test: cells; settings: Homo sapiens, DU-145, 48 h; for CC50: read-out: LC50
[21] = system: MCF7; test: cells; settings: Homo sapiens, MCF7, 48 h; for CC50: read-out: LC50
[22] = system: NCI-H23; test: cells; settings: Homo sapiens, NCI-H23, 48 h; for CC50: read-out: LC50
[23] = system: RPMI-8226; test: cells; settings: Homo sapiens, RPMI-8226, 48 h; for CC50: read-out: LC50
[24] = system: IGROV1; test: cells; settings: Homo sapiens, IGROV-1, 48 h; for CC50: read-out: LC50
[25] = system: MALME-3M; test: cells; settings: Homo sapiens, 48 h; for CC50: read-out: LC50
[26] = system: HCT-15; test: cells; settings: Homo sapiens, HCT-15, 48 h; for CC50: read-out: LC50
[27] = Neisseria gonorrhoeae, ATCC49226, read-out: MIC

## CN(C)c1nc(NCCNS(=O)(=O)c2ccc(C3=Nc4c(N)nc(N)nc4NC(c4ccc(Cl)cc4)C3)cc2)nc(Nc2ccc(F)cc2)n1 (stereo not shown) [31e]
[1]
  GI50: > 100 µM
  CC50: > 100 µM
[2]
  GI50: > 100 µM
  CC50: > 100 µM
[3]
  GI50: 5.17 µM
  CC50: > 100 µM
[4]
  GI50: > 100 µM
  CC50: > 100 µM
[5]
  GI50: 5.95 µM
  CC50: > 100 µM
[6]
  GI50: > 100 µM
  CC50: > 100 µM
[7]
  hemolysis at 24 h, 200 µg/mL: 2.3%
[8]
  GI50: > 100 µM
  CC50: > 100 µM
[9]
  GI50: > 100 µM
  CC50: > 100 µM
[10]
  GI50: > 100 µM
  CC50: > 100 µM
[11]
  GI50: > 100 µM
  CC50: > 100 µM
[12]
  GI50: 3.96 µM
  CC50: 28.7 µM
[13]
  activity at 10 µM: 30.8%
[14]
  GI50: > 100 µM
  CC50: > 100 µM
[15]; [27]
  MIC: 0.5 µg/mL (≈ 0.696 µM)
[16]
  GI50: 2.27 µM
[16]; read-out: LC50
  CC50: 8.75 µM
[17]
  MIC: 1.2 µg/mL (≈ 1.67 µM)
[18]
  CC50: > 100 µM
[19]
  GI50: 6.2 µM
  CC50: > 100 µM
[20]
  GI50: > 100 µM
  CC50: > 100 µM
[21]
  GI50: 2.89 µM
  CC50: > 100 µM
[22]
  GI50: 72.7 µM
  CC50: > 100 µM
[23]
  GI50: 3.19 µM
  CC50: > 100 µM
[24]
  GI50: 9.96 µM
  CC50: > 100 µM
[25]
  GI50: 3.86 µM
  CC50: 19.2 µM
[26]
  GI50: > 100 µM
  CC50: > 100 µM

## CN(C)c1nc(NCCNS(=O)(=O)c2ccc(C3=Nc4c(N)nc(N)nc4NC(c4ccc(F)cc4)C3)cc2)nc(Nc2ccc(F)cc2)n1 (stereo not shown) [31f]
[1]
  GI50: > 100 µM
  CC50: > 100 µM
[2]
  GI50: > 100 µM
  CC50: > 100 µM
[3]
  GI50: 5.93 µM
  CC50: > 100 µM
[4]
  GI50: 96 µM
  CC50: > 100 µM
[5]
  GI50: 8.27 µM
  CC50: > 100 µM
[6]
  GI50: > 100 µM
  CC50: > 100 µM
[7]
  hemolysis at 24 h, 200 µg/mL: 2.4%
[8]
  GI50: > 100 µM
  CC50: > 100 µM
[9]
  GI50: > 100 µM
  CC50: > 100 µM
[10]
  GI50: > 100 µM
  CC50: > 100 µM
[11]
  GI50: > 100 µM
  CC50: > 100 µM
[12]
  GI50: 3.26 µM
  CC50: 18.2 µM
[13]
  activity at 10 µM: 37.1%
[14]
  GI50: 12 µM
  CC50: > 100 µM
[15]
  MIC: 0.25 µg/mL (≈ 0.356 µM)
[15]; [27]
  MIC: 0.25 µg/mL (≈ 0.356 µM)
[16]
  GI50: 2.48 µM
[17]
  MIC: 1.2 µg/mL (≈ 1.71 µM)
[18]
  CC50: > 100 µM
[19]
  GI50: 6.71 µM
  CC50: > 100 µM
[20]
  GI50: 52 µM
  CC50: > 100 µM
[21]
  GI50: 3.16 µM
  CC50: 43.7 µM
[22]
  GI50: 54.1 µM
  CC50: > 100 µM
[23]
  GI50: 5.25 µM
  CC50: > 100 µM
[24]
  GI50: 5.01 µM
  CC50: > 100 µM
[25]
  GI50: 6.28 µM
  CC50: > 100 µM
[26]
  GI50: > 100 µM
  CC50: > 100 µM
